Consider 4 compounds from ChEMBL document CHEMBL1131253, “A pyridoxine cyclic phosphate and its 6-azoaryl derivative selectively potentiate and antagonize activation of P2X1 receptors” (J Med Chem, 1998).

The target in assay [1] is T1, P2X purinoceptor 3 (Rattus norvegicus, UniProt P49654).
T1 sequence (P49654 whole entry): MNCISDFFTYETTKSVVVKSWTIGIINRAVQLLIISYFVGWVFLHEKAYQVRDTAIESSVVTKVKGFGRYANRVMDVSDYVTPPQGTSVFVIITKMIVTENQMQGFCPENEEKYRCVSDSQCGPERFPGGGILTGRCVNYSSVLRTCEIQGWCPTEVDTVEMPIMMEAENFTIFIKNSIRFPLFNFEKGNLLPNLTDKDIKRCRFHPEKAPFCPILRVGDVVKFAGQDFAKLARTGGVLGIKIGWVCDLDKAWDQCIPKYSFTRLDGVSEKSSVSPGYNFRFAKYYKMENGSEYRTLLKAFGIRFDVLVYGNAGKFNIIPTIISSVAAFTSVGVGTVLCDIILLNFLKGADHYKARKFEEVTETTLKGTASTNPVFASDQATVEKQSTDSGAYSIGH
Put plainly: Compound was tested in a functional ion channel assay of ATP-induced current at recombinant rat P2X3 receptor expressed in Xenopus oocytes. The format is cell-based, Oocyte.

For assay [2], the target named is T2, P2X purinoceptor 1 (Rattus norvegicus, UniProt P47824).
T2 sequence (P47824 whole entry): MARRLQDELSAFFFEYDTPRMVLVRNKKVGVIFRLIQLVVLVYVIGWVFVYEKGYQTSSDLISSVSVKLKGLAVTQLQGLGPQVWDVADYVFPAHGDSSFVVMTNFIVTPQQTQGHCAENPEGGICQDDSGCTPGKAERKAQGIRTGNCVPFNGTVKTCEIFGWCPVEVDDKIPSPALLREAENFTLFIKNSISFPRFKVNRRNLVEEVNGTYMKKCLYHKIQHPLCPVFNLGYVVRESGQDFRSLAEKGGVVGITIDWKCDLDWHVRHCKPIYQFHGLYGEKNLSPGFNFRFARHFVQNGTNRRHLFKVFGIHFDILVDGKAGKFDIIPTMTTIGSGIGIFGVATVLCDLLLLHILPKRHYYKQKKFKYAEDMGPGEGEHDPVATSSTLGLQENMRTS
Put plainly: Compound was tested in a functional ion channel assay of ATP-induced current at recombinant rat P2X1 receptor expressed in Xenopus oocytes. The format is cell-based, Oocyte.

SMILES strings stand for the structures.

For `Cc1nc(/N=N/c2cc(S(=O)(=O)O)ccc2S(=O)(=O)O)c2c(c1O)COP(=O)(O)OC2`, the IC50 came out at 58.3 µM in assay [1] and 10.2 µM in assay [2].

Consider `Cc1nc(/N=N/c2ccc(S(=O)(=O)O)cc2S(=O)(=O)O)c(COP(=O)(O)O)c(C=O)c1O`, for which the IC50 in assay [1] is 0.24 µM; in assay [2] it was 0.0985 µM.

With `Cc1ncc2c(c1O)COP(=O)(O)OC2`, the EC50 in assay [2] came to 5.9 µM.

As for `Cc1nc(/N=N/c2cc(S(=O)(=O)O)ccc2S(=O)(=O)O)c(COP(=O)(O)O)c(C=O)c1O` [ISOPPADS], in assay [2], the IC50 was found to be 0.0425 µM.
